Reference: US9975849B1, “Gossypol l-arginine schiff base compound with antitumor activities and a method of preparing the same” (SHAANXI PANLONG PHARMACEUTICAL GROUP LIMITED BY SHARE LTD., priority 2017, dated 2018)
Like-named read-outs stand apart in the source and are kept apart here.

Legend:
Format in all cases: cell-based
[1] = tested on: human hepatoma cells (HepG2); assay: MTT tumor cell proliferation inhibition test, HepG2; settings: for IC50: Homo sapiens, read-out: Half Inhibitory Concentration IC50 HepG2
Procedure: (§1) The compounds of the present invention were subjected to tumor cell proliferation inhibition test, and conventional MTT method was used.
(§2) Cell lines: human hepatoma cells (HepG2), human lung cancer cells (A-549), human gastric cancer cells (SGC-7901). The culture medium was DMEM+15% NBS+double antibody.
(§3) Sample solution preparation: after dissolving with DMSO (Merck), PBS (-) was added to obtain 100 μmol/L solution or homogeneous suspension. The solution was diluted with PBS (-) in DMSO to a final concentration of 0.1, 1, 10, 20, 40, 60, 80, 100 μmol/L.
(§4) Anti-uterine fibroids drug gossypol was used as control solution, prepared under the same condition.
(§5) Cell culture: adherent growth Tumor cells were cultured in 1640 medium containing 10% inactivated neonatal bovine serum and penicillin, streptomycin (1 million U/L), placed in carbon dioxide incubator at 37° C., 5% CO2, and saturated humidity. Cells were treated serially passaged 2-3 times. The first culture was washed with PBS 2 times, and digested with trypsin. Fresh culture medium was added evenly, cells were adjusted to a appropriate concentration and transferred into a new culture flask. […]
(§6) Experimental Principle: Living cells mitochondria in the dehydrogenase can reduce yellow MTT to water-insoluble blue-violet product MT (MTT formazan), deposited in the cells. […] DMSO can dissolve blue violet crystals, and the color depth is proportional to the amount contained, so the absorbance measured by the microplate reader can reflect the cell viability.
(§7) Methods: The exponential phase cells were digested and counted and seeded in 96-well plates at a density of 2×10^4/mL at 100 μl per well. […] After 48 hours, the supernatant was discarded, and 100 μl of MTT ((2-(4,5-dimethyl-2-thiazolyl)-3,5-diphenyl-2H-[…]) (1 mg/mL) was added to each well. After another 4 hours, the supernatant was discarded, and 100 μl of DMSO was added to each well. After mixing, the absorbance was measured at 570 nm using a microplate reader. An IC50 calculation software was used to determine the half inhibitory concentration (IC50).

[2] = tested on: human gastric cancer cells (SGC-7901); assay: MTT tumor cell proliferation inhibition test, SGC-7901; settings: for IC50: Homo sapiens, read-out: Half Inhibitory Concentration IC50 SGC-7901
Procedure: as §1, §2, §3, §4
Cell culture: adherent growth Tumor cells were cultured in 1640 medium containing 10% inactivated neonatal bovine serum and penicillin, streptomycin (1 million U/L), placed in carbon dioxide incubator at 37° C., 5% CO2, and saturated humidity. Cells were treated serially passaged 2-3 times. The first culture was washed with PBS 2 times, and digested with trypsin. Fresh culture medium was added evenly, cells were adjusted to a appropriate concentration and transferred into a new culture flask. Cell in an exponential phase were chosen for the tests.
MTT Assay for Cell Viability and IC50 Determination:
Experimental Principle: Living cells mitochondria in the dehydrogenase can reduce yellow MTT to water-insoluble blue-violet product MT (MTT formazan), deposited in the cells. The amount of production is proportional to the number of living cells. […] DMSO can dissolve blue violet crystals, and the color depth is proportional to the amount contained, so the absorbance measured by the microplate reader can reflect the cell viability.
Methods: The exponential phase cells were digested and counted and seeded in 96-well plates at a density of 2×10^4/mL at 100 μl per well. After 24 hours of incubation, the cells to be tested were treated with 0.1, 1, 10, 20, 40, 60, 80, 100 μmol/L of the compounds. Each experimental group had 5 wells in each concentration, and the culture medium containing 0.4% DMSO was used as control. After 48 hours, the supernatant was discarded, and 100 μl of MTT ((2-(4,5-dimethyl-2-thiazolyl)-3,5-diphenyl-2H-[…]) (1 mg/mL) was added to each well. After another 4 hours, the supernatant was discarded, and 100 μl of DMSO was added to each well. After mixing, the absorbance was measured at 570 nm using a microplate reader. An IC50 calculation software was used to determine the half inhibitory concentration (IC50).

[3] = tested on: human lung cancer cells (A-549); assay: MTT tumor cell proliferation inhibition test, A-549
Procedure: as §1, §2, §3, §4, §5, §6, §7

Row | Compound | antitumor activities (in words) ([1]; HepG2, one of the three cell lines tested) | IC50 ([1]; MTT, 48 hours treatment, HepG2) [µM] | IC50 ([2]; MTT, 48 hours treatment, SGC-7901) [µM] | antitumor activities (in words) ([2]; SGC-7901, one of the three cell lines tested) | antitumor activities compared with gossypol ([2]; against SCG-7901) | antitumor activities (in words) ([3]; A549, one of the three cell lines tested) | IC50 ([3]; Homo sapiens, MTT, 48 hours treatment, A549, read-out: Half Inhibitory Concentration IC50 A549) [µM] | antitumor activities compared with gossypol ([3]; against A549) | IC50 ([1]; HepG2, 48 h) [µM] | IC50 ([2]; SGC-7901, 48 h) [µM]
1 | Cc1cc2c(C(C)C)c(O)c(O)c(/C=N\C(=N)NCCC[C@H](N)C(=O)O)c2c(O)c1-c1c(C)cc2c(C(C)C)c(O)c(O)c(/C=N/C(=N)NCCC[C@H](N)C(=O)O)c2c1O [Gossypol L-arginine Schiff base compound, gossypol L-arginine Schiff base compound] | excellent antitumor activities | 11.7 ± 0.32 | 9.37 ± 0.36 | excellent antitumor activities | better antitumor activities than gossypol | excellent antitumor activities | 12.3 ± 0.69 | better antitumor activities than gossypol |  | 
2 | Cc1cc2c(C(C)C)c(O)c(O)c(C=O)c2c(O)c1-c1c(C)cc2c(C(C)C)c(O)c(O)c(C=O)c2c1O [Gossypol, gossypol] |  |  |  |  |  |  |  |  | 8.29 ± 0.28 | 18.2 ± 0.37
